# From ChEMBL document CHEMBL1142647, “Potent pyrimidinetrione-based inhibitors of MMP-13 with enhanced selectivity over MMP-14” (Bioorg Med Chem Lett, 2005)
# Biological target: Collagenase 3 (Homo sapiens, UniProt P45452)
# Test: Inhibitory concentration against matrix metalloprotease 13
row,Structure (SMILES),IC50 [nM]
1,CCCCC1(Oc2ccc(Oc3ccc(F)cc3)cc2)C(=O)NC(=O)NC1=O,2
2,CC1(Oc2ccc(Cl)cc2)C(=O)NC(=O)NC1=O,390
